{
  "source": "patent US20250340557A1",
  "about": "“PYRIMIDINE DERIVATIVE” (ASKA PHARMACEUTICAL CO., LTD., priority 2022, published 2025)",
  "data": [
    {"target": "T1, human mPGES-1 (Homo sapiens, UniProt O14684)", "T1 construct": "made in house; host or cells: COS-1 cells (transient transfection; microsomal fraction used as enzyme)", "T1 sequence (O14684 1-152)": "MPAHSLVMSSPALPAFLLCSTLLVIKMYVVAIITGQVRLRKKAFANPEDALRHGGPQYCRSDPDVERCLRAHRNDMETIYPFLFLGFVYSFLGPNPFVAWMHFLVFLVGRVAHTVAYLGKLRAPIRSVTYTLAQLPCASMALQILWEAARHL", "assay": "Test for mPGES-1 inhibitory activity (microsomal enzyme, PGE2 EIA)", "format": "biochemical", "conditions": "microsomes from COS-1 cells transfected with human mPGES-1 cDNA; substrate PGH2 1 μM; 4° C., 4 minutes; PGE2 measured by EIA; read-out: h mPGES1 IC50", "summary_of_the_method": "(§1)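 Enzyme source was microsomes from COS-1 cells transiently expressing human mPGES-1, in sodium phosphate pH 7.2 with 2.5 mM GSH, 1 mM EDTA and 2% DMSO final. After a 15 min preincubation with compound at 4 °C, 1 μM PGH2 (final) reacted for 4 min at 4 °C.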", "units": {"IC50": "nM"}, "values": [
      {"smiles": "O=c1cc(C(F)(F)F)nc(-c2c(C(F)(F)F)ccc(CNC(=O)[C@H]3C[C@H](OCc4ccccc4C(F)(F)F)C3)c2F)[nH]1", "note": "[Example 142, trans-N-{2-fluoro-3-[6-oxo-4-(trifluoromethyl)-1,6-dihydropyrimidin-2-yl]-4-(trifluoromethyl)benzyl}-3-{[2-(trifluoromethyl)benzyl]oxy}cyclobutane-1-carboxamide]", "IC50": "< 1"},
      {"smiles": "Cc1cc(=O)[nH]c(-c2c(C(F)(F)F)ccc(CNC(=O)[C@H]3CC[C@H](OCc4ccccc4Cl)CC3)c2F)n1", "note": "[Example 108, trans-4-[(2-chlorobenzyl)oxy]-N-[2-fluoro-3-(4-methyl-6-oxo-1,6-dihydropyrimidin-2-yl)-4-(trifluoromethyl)benzyl]cyclohexane-1-carboxamide]", "IC50": 38},
      {"smiles": "Cc1cccc2ccc(N3CCC(C(=O)NCc4ccc(C(F)(F)F)c(-c5nc(C(C)C)cc(=O)[nH]5)c4F)CC3)nc12", "note": "[Example 11, N-[2-fluoro-3-(4-isopropyl-6-oxo-1,6-dihydropyrimidin-2-yl)-4-(trifluoromethyl)benzyl]-1-(8-methylquinolin-2-yl)piperidine-4-carboxamide]", "IC50": "< 1"},
      {"smiles": "CCc1cc(=O)[nH]c(-c2c(C(F)(F)F)ccc(CNC(=O)C3CCN(c4ccc(C(F)(F)F)cn4)CC3)c2F)n1", "note": "[Example 23, N-[3-(4-ethyl-6-oxo-1,6-dihydropyrimidin-2-yl)-2-fluoro-4-(trifluoromethyl)benzyl]-1-[5-(trifluoromethyl)pyridin-2-yl]piperidine-4-carboxamide]", "IC50": 4.8},
      {"smiles": "Cc1nc(-c2c(C(F)(F)F)ccc(CNC(=O)C3(F)CCN(c4ccc(C(F)(F)F)cn4)CC3)c2F)[nH]c(=O)c1F", "note": "[Example 51, 4-fluoro-N-[2-fluoro-3-(5-fluoro-4-methyl-6-oxo-1,6-dihydropyrimidin-2-yl)-4-(trifluoromethyl)benzyl]-1-[5-(trifluoromethyl)pyridin-2-yl]piperidine-4-carboxamide]", "IC50": "< 1"},
      {"smiles": "Cc1cc(=O)[nH]c(-c2c(C(F)(F)F)ccc(CNC(=O)[C@H]3CC[C@H](OCc4ccc(Cl)cc4)CC3)c2F)n1", "note": "[Example 105, trans-4-[(4-chlorobenzyl)oxy]-N-[2-fluoro-3-(4-methyl-6-oxo-1,6-dihydropyrimidin-2-yl)-4-(trifluoromethyl)benzyl]cyclohexane-1-carboxamide]", "IC50": 23},
      {"smiles": "CCc1nc(-c2c(C(F)(F)F)ccc(CNC(=O)C3CCN(c4ccc(Cl)cn4)CC3)c2F)[nH]c(=O)c1F", "note": "[Example 57, 1-(5-chloropyridin-2-yl)-N-[3-(4-ethyl-5-fluoro-6-oxo-1,6-dihydropyrimidin-2-yl)-2-fluoro-4-(trifluoromethyl)benzyl]piperidine-4-carboxamide]", "IC50": "< 1"},
      {"smiles": "Cc1nc(-c2c(C(F)(F)F)ccc(CNC(=O)C3CCN(c4ccc(C(F)(F)F)cn4)CC3)c2F)[nH]c(=O)c1F", "note": "[Example 33, N-[2-fluoro-3-(5-fluoro-4-methyl-6-oxo-1,6-dihydropyrimidin-2-yl)-4-(trifluoromethyl)benzyl]-1-[5-(trifluoromethyl)pyridin-2-yl]piperidine-4-carboxamide]", "IC50": 14},
      {"smiles": "O=c1cc(C(F)(F)F)nc(-c2c(C(F)(F)F)ccc(CNC(=O)[C@H]3C[C@@H](OCc4ccccc4C(F)(F)F)C3)c2F)[nH]1", "note": "[Example 143, cis-N-{2-fluoro-3-[6-oxo-4-(trifluoromethyl)-1,6-dihydropyrimidin-2-yl]-4-(trifluoromethyl)benzyl}-3-{[2-(trifluoromethyl)benzyl]oxy}cyclobutane-1-carboxamide]", "IC50": 28},
      {"smiles": "CCc1nc(-c2c(C(F)(F)F)ccc(CNC(=O)[C@H]3CC[C@H](OCc4ccc(F)c(F)c4)CC3)c2F)[nH]c(=O)c1F", "note": "[Example 133, trans-4-[(3,4-difluorobenzyl)oxy]-N-[3-(4-ethyl-5-fluoro-6-oxo-1,6-dihydropyrimidin-2-yl)-2-fluoro-4-(trifluoromethyl)benzyl]cyclohexane-1-carboxamide]", "IC50": 27},
      {"smiles": "O=C(NCc1ccc(C(F)(F)F)c(-c2nc(C(F)(F)F)cc(=O)[nH]2)c1F)C1CCN(c2ncc(C(F)(F)F)cc2F)CC1", "note": "[Example 39, N-{2-fluoro-3-[6-oxo-4-(trifluoromethyl)-1,6-dihydropyrimidin-2-yl]-4-(trifluoromethyl)benzyl}-1-[3-fluoro-5-(trifluoromethyl)pyridin-2-yl]piperidine-4-carboxamide]", "IC50": "< 1"}
    ]},
    {"target": "T1, human mPGES-1", "assay": "Test for mPGES-1 inhibitory activity (microsomal enzyme, PGE2 EIA)", "format": "biochemical", "conditions": "microsomes of COS-1 cells transfected with human mPGES-1 cDNA; PGH2 1 μM; 4° C., 4 minutes; PGE2 by EIA; read-out: h mPGES1 IC50", "summary_of_the_method": "as §1", "units": {"IC50": "nM"}, "values": [
      {"smiles": "CCc1nc(-c2c(C(F)(F)F)ccc(CNC(=O)[C@H]3C[C@H](OCc4cccc(Cl)c4)C3)c2F)[nH]c(=O)c1F", "note": "[Example 230, trans-3-[(3-chlorobenzyl)oxy]-N-[3-(4-ethyl-5-fluoro-6-oxo-1,6-dihydropyrimidin-2-yl)-2-fluoro-4-(trifluoromethyl)benzyl]cyclobutane-1-carboxamide]", "IC50": "< 1"},
      {"smiles": "Cc1nc(-c2c(C(F)(F)F)ccc(CNC(=O)[C@H]3C[C@H](OCc4ccc(F)c(Cl)c4)C3)c2F)[nH]c(=O)c1F", "note": "[Example 227, trans-3-[(3-chloro-4-fluorobenzyl)oxy]-N-[2-fluoro-3-(5-fluoro-4-methyl-6-oxo-1,6-dihydropyrimidin-2-yl)-4-(trifluoromethyl)benzyl]cyclobutane-1-carboxamide]", "IC50": "< 1"},
      {"smiles": "Cc1cc(=O)[nH]c(-c2c(C(F)(F)F)ccc(CNC(=O)[C@H]3C[C@H](OCc4ccccc4Cl)C3)c2F)n1", "note": "[Example 178, trans-3-[(2-chlorobenzyl)oxy]-N-[2-fluoro-3-(4-methyl-6-oxo-1,6-dihydropyrimidin-2-yl)-4-(trifluoromethyl)benzyl]cyclobutane-1-carboxamide]", "IC50": "< 1"},
      {"smiles": "Cc1cc(=O)[nH]c(-c2c(C(F)(F)F)ccc(CNC(=O)[C@H]3C[C@H](OCc4cc(F)cc(Cl)c4)C3)c2F)n1", "note": "[Example 194, trans-3-[(3-chloro-5-fluorobenzyl)oxy]-N-[2-fluoro-3-(4-methyl-6-oxo-1,6-dihydropyrimidin-2-yl)-4-(trifluoromethyl)benzyl]cyclobutane-1-carboxamide]", "IC50": 3.6},
      {"smiles": "Cc1nc(-c2c(C(F)(F)F)ccc(CNC(=O)[C@H]3C[C@H](OCc4ccc(F)cc4F)C3)c2F)[nH]c(=O)c1F", "note": "[Example 218, trans-3-[(2,4-difluorobenzyl)oxy]-N-[2-fluoro-3-(5-fluoro-4-methyl-6-oxo-1,6-dihydropyrimidin-2-yl)-4-(trifluoromethyl)benzyl]cyclobutane-1-carboxamide]", "IC50": 13},
      {"smiles": "Cc1nc(-c2c(C(F)(F)F)ccc(CNC(=O)[C@H]3C[C@H](OCc4cccc(F)c4)C3)c2F)[nH]c(=O)c1F", "note": "[Example 222, trans-N-[2-fluoro-3-(5-fluoro-4-methyl-6-oxo-1,6-dihydropyrimidin-2-yl)-4-(trifluoromethyl)benzyl]-3-[(3-fluorobenzyl)oxy]cyclobutane-1-carboxamide]", "IC50": 15},
      {"smiles": "O=c1cc(C(F)(F)F)nc(-c2c(C(F)(F)F)ccc(CNC(=O)[C@H]3CC[C@H](c4ccc(Cl)cc4)CC3)c2F)[nH]1", "note": "[Example 279, trans-4-(4-chlorophenyl)-N-{2-fluoro-3-[6-oxo-4-(trifluoromethyl)-1,6-dihydropyrimidin-2-yl]-4-(trifluoromethyl)benzyl}cyclohexane-1-carboxamide]", "IC50": "< 1"},
      {"smiles": "O=c1cc(C(F)(F)F)nc(-c2c(C(F)(F)F)ccc(CNC(=O)[C@H]3C[C@H](Oc4ccccc4Cl)C3)c2F)[nH]1", "note": "[Example 251, trans-3-(2-chlorophenoxy)-N-{2-fluoro-3-[6-oxo-4-(trifluoromethyl)-1,6-dihydropyrimidin-2-yl]-4-(trifluoromethyl)benzyl}cyclobutane-1-carboxamide]", "IC50": "< 1"},
      {"smiles": "Cc1cc(=O)[nH]c(-c2c(C(F)(F)F)ccc(CNC(=O)[C@H]3C[C@H](OCc4ccc(F)cc4F)C3)c2F)n1", "note": "[Example 184, trans-3-[(2,4-difluorobenzyl)oxy]-N-[2-fluoro-3-(4-methyl-6-oxo-1,6-dihydropyrimidin-2-yl)-4-(trifluoromethyl)benzyl]cyclobutane-1-carboxamide]", "IC50": "< 1"},
      {"smiles": "O=C(NCc1ccc(C(F)(F)F)c(-c2nc(C(F)(F)F)cc(=O)[nH]2)c1F)C1CCC(Oc2ccc(C(F)(F)F)cn2)CC1", "note": "(stereo not shown) [Example 248, N-{2-fluoro-3-[6-oxo-4-(trifluoromethyl)-1,6-dihydropyrimidin-2-yl]-4-(trifluoromethyl)benzyl}-4-{[5-(trifluoromethyl)pyridin-2-yl]oxy}cyclohexane-1-carboxamide]", "IC50": "< 1"},
      {"smiles": "O=c1cc(C(F)F)nc(-c2c(C(F)(F)F)ccc(CNC(=O)[C@H]3C[C@H](OCc4cc(Cl)ccc4F)C3)c2F)[nH]1", "note": "[Example 175, trans-3-[(5-chloro-2-fluorobenzyl)oxy]-N-{3-[4-(difluoromethyl)-6-oxo-1,6-dihydropyrimidin-2-yl]-2-fluoro-4-(trifluoromethyl)benzyl}cyclobutane-1-carboxamide]", "IC50": "< 1"}
    ]}
  ]
}
